Several values for one entry are separate records, joined by “and”; a condition that tells them apart may be missing. Identical values can stand only once. Inconclusive results and toxic doses are left out.
Tested on: BDF1 mice, P388 leukemia ip, median survival T/C
Assay: NCI In Vivo Anticancer Drug Screen. Data for tumor model P388 Leukemia (intraperitoneal) in B6D2F1 (BDF1) mice
Conditions: endpoint: median survival time, higher = longer survival
Summary of the method: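 Antitumour effect was judged in vivo: survival in drug-treated mice, normalised to that of vehicle-dosed controls, gives the reported T/C.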

[1] = dose: 50.0 mg/kg/injection, schedule: Q01DX009 (ip), vehicle: saline with Tween-80
[2] = dose: 100.0 mg/kg/injection, schedule: Q01DX009 (ip), vehicle: saline with Tween-80
[3] = dose: 200.0 mg/kg/injection, schedule: Q01DX009 (ip), vehicle: saline with Tween-80
[4] = dose: 1.56 mg/kg/injection, schedule: Q01DX009 (ip), vehicle: saline with Tween-80
[5] = dose: 100.0 mg/kg/injection, schedule: Q04DX003 (ip), vehicle: saline with Tween-80
[6] = dose: 100.0 mg/kg/injection, schedule: Q04DX003 (ip), vehicle: Klucel (hydroxypropylcellulose) (HPC)
[7] = dose: 25.0 mg/kg/injection, schedule: Q01DX009 (ip), vehicle: saline
[8] = dose: 25.0 mg/kg/injection, schedule: Q04DX003 (ip), vehicle: saline with Tween-80
[9] = dose: 50.0 mg/kg/injection, schedule: Q04DX003 (ip), vehicle: saline with Tween-80

In the case of `COc1ccc(-c2c[se]c(=S)s2)cc1`, the T/C (dose: 25.0 mg/kg/injection, schedule: Q01DX009 (ip), vehicle: saline with Tween-80) is reported as 99 % of control, the T/C [1] is reported as 94 % of control and the T/C [2] is reported as 87 % of control.

For `CC[C@@H](O)C[C@H]1CCC[C@@]2(C[C@@H]3OC(=O)/C=C/[C@@](C)(O)[C@@H](O)[C@H](C)[C@@H](O)[C@H](OC4CCC(N(C)C)C(C)O4)[C@@H](O)[C@](C)(O)CCCCC/C=C/[C@@H]4CC(C)(C)O[C@@]4(O)C[C@H](O2)[C@H]3C)O1` (stereo partly drawn), the T/C (dose: 0.04 mg/kg/injection, schedule: Q04DX003 (ip), vehicle: saline) was 91 % of control, the T/C (dose: 0.06 mg/kg/injection, schedule: Q04DX003 (ip), vehicle: saline) was 95 % of control and the T/C (dose: 0.1 mg/kg/injection, schedule: Q04DX003 (ip), vehicle: saline) was 108 % of control. For the same molecule, the T/C (dose: 7.5 micrograms/kg/injection, schedule: Q01DX009 (ip), vehicle: saline) was 100 % of control, the T/C (dose: 7.5 micrograms/kg/injection, schedule: Q04DX003 (ip), vehicle: saline) was 104 % of control and the T/C (dose: 15.0 micrograms/kg/injection, schedule: Q01DX009 (ip), vehicle: saline) was 109 % of control. The T/C (dose: 15.0 micrograms/kg/injection, schedule: Q04DX003 (ip), vehicle: saline) was 104 % of control, the T/C (dose: 30.0 micrograms/kg/injection, schedule: Q01DX009 (ip), vehicle: saline) was 104 % of control and the T/C (dose: 30.0 micrograms/kg/injection, schedule: Q04DX003 (ip), vehicle: saline) was 113 % of control.

`CCOCc1c(COc2ccc(OC)cc2)n(CC#CCOc2ccc(OC)cc2)c2ccc(Br)cc12` was tested, and the T/C [1] was 101 % of control, the T/C [2] was 93 % of control and the T/C [3] was 98 % of control.

For `C[CH2][Pb]([CH2]C)([CH2]C)[O]C(=O)COc1ccccc1`, the T/C (dose: 0.75 mg/kg/injection, schedule: Q01DX009 (ip), vehicle: Klucel (hydroxypropylcellulose) (HPC)) was 118 % of control, the T/C (dose: 0.75 mg/kg/injection, schedule: Q04DX003 (ip), vehicle: saline with Tween-80) was 107 % of control and the T/C (dose: 1.5 mg/kg/injection, schedule: Q04DX003 (ip), vehicle: saline with Tween-80) was 117 % of control. The T/C [4] was 115 % of control, the T/C (dose: 3.9 mg/kg/injection, schedule: Q04DX003 (ip), vehicle: alcohol) was 112 % of control and the T/C (dose: 6.0 mg/kg/injection, schedule: Q01DX009 (ip), vehicle: Klucel (hydroxypropylcellulose) (HPC)) was 117 % of control. The T/C (dose: 6.0 mg/kg/injection, schedule: Q04DX003 (ip), vehicle: alcohol) was 120 % of control, the T/C (dose: 6.25 mg/kg/injection, schedule: Q01DX009 (ip), vehicle: saline with Tween-80) was 153 % of control and 168 % of control and the T/C (dose: 9.0 mg/kg/injection, schedule: Q04DX003 (ip), vehicle: alcohol) was 105 % of control. The T/C (dose: 12.0 mg/kg/injection, schedule: Q04DX003 (ip), vehicle: saline with Tween-80) was 107 % of control.

`COC(=O)C(CSCSC)NC(=O)NC1CCCCC1` (stereo not drawn) was tested, and the T/C [5] was 95 % of control, the T/C (dose: 200.0 mg/kg/injection, schedule: Q04DX003 (ip), vehicle: saline with Tween-80) was 104 % of control and the T/C (dose: 400.0 mg/kg/injection, schedule: Q04DX003 (ip), vehicle: saline with Tween-80) was 95 % of control.

For `Nc1ncnc2c1ncn2C1OC(CO)C(O)C1O.[Cl][Pt][Cl]` (stereo not drawn), the T/C (dose: 100.0 mg/kg/injection, schedule: Q01DX009 (ip), vehicle: water) was 115 % of control, the T/C (dose: 200.0 mg/kg/injection, schedule: Q01DX009 (ip), vehicle: water) was 102 % of control and the T/C (dose: 400.0 mg/kg/injection, schedule: Q01DX009 (ip), vehicle: water) was 96 % of control.

For `Nc1ncnc2c1ncn2C1CCCO1` (stereo not drawn), the T/C [1] was 100 % of control, the T/C [2] was 109 % of control and the T/C (dose: 100.0 mg/kg/injection, schedule: Q04DX003 (ip), vehicle: saline) was 100 % of control. The T/C [3] was 109 % of control and the T/C (dose: 200.0 mg/kg/injection, schedule: Q04DX003 (ip), vehicle: saline) was 95 % of control.

With `Nc1cc(=O)[nH][nH]1` the T/C [2] was 104 % of control, the T/C [3] was 109 % of control and the T/C (dose: 400.0 mg/kg/injection, schedule: Q01DX009 (ip), vehicle: saline with Tween-80) was 122 % of control.

With `Cc1nc(N)sc1CCCl` the T/C (dose: 10.0 mg/kg/injection, schedule: Q01DX009 (ip), vehicle: saline) was 104 % of control, the T/C (dose: 20.0 mg/kg/injection, schedule: Q01DX009 (ip), vehicle: saline) was 104 % of control and the T/C (dose: 40.0 mg/kg/injection, schedule: Q01DX009 (ip), vehicle: saline) was 100 % of control. The T/C (dose: 80.0 mg/kg/injection, schedule: Q01DX009 (ip), vehicle: saline) was 113 % of control.

With `COc1ccc2nc3c4ccccc4scc-3c2c1` the T/C (dose: 25.0 mg/kg/injection, schedule: Q04DX003 (ip), vehicle: Klucel (hydroxypropylcellulose) (HPC)) was 109 % of control, the T/C (dose: 50.0 mg/kg/injection, schedule: Q04DX003 (ip), vehicle: Klucel (hydroxypropylcellulose) (HPC)) was 109 % of control and the T/C [6] was 100 % of control. For the same molecule, the T/C (dose: 148.5 mg/kg/injection, schedule: Q04DX003 (ip), vehicle: Klucel (hydroxypropylcellulose) (HPC)) was 109 % of control, the T/C (dose: 150.0 mg/kg/injection, schedule: Q04DX003 (ip), vehicle: Klucel (hydroxypropylcellulose) (HPC)) was 116 % of control and the T/C (dose: 225.0 mg/kg/injection, schedule: Q04DX003 (ip), vehicle: Klucel (hydroxypropylcellulose) (HPC)) was 100 % of control. For the same molecule, the T/C (dose: 337.5 mg/kg/injection, schedule: Q04DX003 (ip), vehicle: Klucel (hydroxypropylcellulose) (HPC)) was 113 % of control.

For `CCOC(=O)/C(C#N)=C/C=C1\C=CC=CN1C`, the T/C [1] was 90 % of control.

For `CC(Cc1cccs1)N=Cc1cc(Br)ccc1O` (stereo not drawn), the T/C (dose: 100.0 mg/kg/injection, schedule: Q01DX001 (ip), vehicle: saline with Tween-80) was 100 % of control, the T/C (dose: 200.0 mg/kg/injection, schedule: Q01DX001 (ip), vehicle: saline with Tween-80) was 111 % of control and the T/C (dose: 400.0 mg/kg/injection, schedule: Q01DX001 (ip), vehicle: saline with Tween-80) was 109 % of control.

In the case of `CC(C)=NNC(=O)c1ccccc1`, the T/C [7] is reported as 104 % of control, the T/C [8] is reported as 95 % of control and the T/C (dose: 50.0 mg/kg/injection, schedule: Q01DX009 (ip), vehicle: saline) is reported as 109 % of control. The T/C [9] was 95 % of control and the T/C [5] was 100 % of control and 113 % of control.

For `C=C(NC(C)=O)C(=O)O`, the T/C (dose: 20.0 mg/kg/injection, schedule: Q04DX003 (ip), vehicle: Klucel (hydroxypropylcellulose) (HPC)) was 108 % of control, the T/C (dose: 25.0 mg/kg/injection, schedule: Q01DX009 (ip), vehicle: Klucel (hydroxypropylcellulose) (HPC)) was 104 % of control and the T/C (dose: 40.0 mg/kg/injection, schedule: Q04DX003 (ip), vehicle: Klucel (hydroxypropylcellulose) (HPC)) was 108 % of control. The T/C (dose: 50.0 mg/kg/injection, schedule: Q01DX009 (ip), vehicle: Klucel (hydroxypropylcellulose) (HPC)) was 104 % of control, the T/C (dose: 80.0 mg/kg/injection, schedule: Q04DX003 (ip), vehicle: Klucel (hydroxypropylcellulose) (HPC)) was 86 % of control and the T/C (dose: 100.0 mg/kg/injection, schedule: Q01DX009 (ip), vehicle: Klucel (hydroxypropylcellulose) (HPC)) was 90 % of control. The T/C [6] was 95 % of control.

For `O=C1c2cccnc2C(=O)N1Cc1ccccc1`, the T/C (dose: 9.38 mg/kg/injection, schedule: Q01DX009 (ip), vehicle: saline with Tween-80) was 109 % of control, the T/C (dose: 18.7 mg/kg/injection, schedule: Q01DX009 (ip), vehicle: saline with Tween-80) was 95 % of control and the T/C (dose: 37.5 mg/kg/injection, schedule: Q01DX009 (ip), vehicle: saline with Tween-80) was 100 % of control.

In the case of `CCS/C(N)=N\N`, the T/C (dose: 12.5 mg/kg/injection, schedule: Q01DX009 (ip), vehicle: saline) is reported as 100 % of control, the T/C [7] is reported as 104 % of control and the T/C (dose: 25.0 mg/kg/injection, schedule: Q04DX003 (ip), vehicle: saline) is reported as 109 % of control. For the same molecule, the T/C (dose: 50.0 mg/kg/injection, schedule: Q04DX003 (ip), vehicle: saline) was 104 % of control.

For `Oc1c(Cl)cc(Cl)cc1/C=N/c1nc(-c2ccc(Cl)cc2)cs1`, the T/C (dose: 0.78 mg/kg/injection, schedule: Q01DX009 (ip), vehicle: saline with Tween-80) was 100 % of control, the T/C [4] was 96 % of control and the T/C (dose: 3.12 mg/kg/injection, schedule: Q01DX009 (ip), vehicle: saline with Tween-80) was 105 % of control.

With `O=[N+]([O-])c1cccc(N2CN(c3ccccc3)NC(c3ccccc3)=N2)c1` the T/C (dose: 12.5 mg/kg/injection, schedule: Q04DX003 (ip), vehicle: saline with Tween-80) was 100 % of control, the T/C [8] was 96 % of control and the T/C [9] was 105 % of control.

With `O=C(O)CP(=O)(O)O` the T/C (dose: 250.0 mg/kg/injection, schedule: Q03HX024 (ip), vehicle: saline) was 120 % of control.

`O=C1CSC(C2CCCCC2)N1c1nccs1` (stereo not drawn) was tested, and the T/C [1] was 110 % of control, the T/C [2] was 112 % of control and the T/C [3] was 110 % of control.

For `CC1=C(/C=C/C(C)=C/C=C/C(C)=C/CO)C(C)(C)CCC1`, the T/C [1] was 92 % of control, the T/C [2] was 96 % of control and the T/C [3] was 96 % of control.

`CC(C)OC(=O)c1ccc(C(C)C)cc1` was tested, and the T/C [2] was 110 % of control and the T/C [3] was 117 % of control.

Source: PubChem BioAssay AID328 (DTP/NCI, 2004)
